Experimental data published in patent US6660864B2, “Polymorphic forms of 6-[4-(1-cyclohexyl-1H-tetrazol-5-yl)butoxy]-3,4-dihydro-2(1H)-quinolinone” (priority 2001, dated 2003).

Legend:
[1] = Aqueous solubility of cilostazol polymorphic form; assay type: physicochemical; conditions: Form A as prepared by the procedures of the '479 patent
[2] = Bioavailability of cilostazol polymorphic form; assay type: in vivo; conditions: Form A as prepared by the procedures of the '479 patent
[3] = Stability of the crystalline form; assay type: physicochemical
[4] = Relative solubility suggested by DSC thermogram (lower melting point, crystal packing forces); assay type: physicochemical; conditions: suggested by the lower melting point in DSC (FIG. 8)
Text: (§1) Characterization of Form A of cilostazol, Form B of cilostazol, and Form C of cilostazol was further completed using DSC thermograms, shown in FIGS. 3, 4, and 5, respectively, with DSC thermograms for combinations of Form A and Form B; Form B and Form C; and Forms A, B, and C are shown in FIGS. 6, 7, and 8 respectively. DSC data were generated using a Mettler-Toledo DSC 821^e (Columbus, Ohio) with a Julabo FT900 intercooler chiller (Julabo Company; Allentown, Pa.). In general, samples were analyzed in a vented, sealed aluminum pan. Because the endothermic peak may vary depending upon the rate of heating and the calibration and precision of the instrument, with the amount of peak variation dependent upon the heating rate used, all thermograms included herein were run under the same, consistent conditions: heating at 10° C. per minute under a nitrogen purge at 40 mL/minute.
FIG. 8 illustrates a DSC thermogram for the combination of Form A, Form B and Form C having a second heating cycle with a maximum temperature of about 110° C. with a holding time of about 30 minutes. The peaks in the third heating cycle show a Form A to Form B to Form C peak area ratio of approximately 8:2:1, respectively, with the relative amount of Form A, Form B and Form C further variable on the heat of enthalpy of each polymorphic form.

[5] = DSC heating of disturbed/stressed sample: solid state phase transformation to Form A; assay type: physicochemical; conditions: sample disturbed (scratching/stressed), DSC from 30° C. to approximately 200° C. at 10° C. per minute
Text: as §1, with “mL/minute. The resultant sample of Example 1A was disturbed with scratching, which caused the cilostazol sample to undergo a solid state phase transformation at approximately 119° C. followed by an endotherm of melt at approximately 160° C. (Form A) during heating by DSC from 30° C. to approximately 200° C. at 10° C. per minute. When the sample is stressed and reheated (as detailed in Example 2A), the sample undergoes a solid state phase transformation at approximately 147° C. followed by an endotherm of melt at about 160° C. […]” for “mL/minute.”

## O=C1CCc2cc(OCCCCc3nnnn3C3CCCCC3)ccc2N1 [Form A, 6-[4-(1-cyclohexyl-1H-tetrazol-5-yl)butoxy]-3,4-dihydro-2(1H)-quinolinone]
[1]
  aqueous solubility: low aqueous solubility
[2]
  bioavailability: low bioavailability

## O=C1CCc2cc(OCCCCc3nnnn3C3CCCCC3)ccc2N1 [Form B, 6-[4-(1-cyclohexyl-1H-tetrazol-5-yl)butoxy]-3,4-dihydro-2(1H)-quinolinone]
[3]
  stability of the polymorphic form: stable
[4]
  solubility relative to Form A: more soluble than Form A
[5]; listed as Example 1A
  solid state phase transformation temperature (to Form A): approximately 119 °C

## O=C1CCc2cc(OCCCCc3nnnn3C3CCCCC3)ccc2N1 [Form C, 6-[4-(1-cyclohexyl-1H-tetrazol-5-yl)butoxy]-3,4-dihydro-2(1H)-quinolinone]
[5]; listed as Example 2A
  solid state phase transformation temperature (to Form A): approximately 147 °C
